Data: ChEMBL document CHEMBL1201862, “PubChem BioAssay data set” (2004)
Activity calls are given as the source filed them.

Tests used:
[1] = T. cruzi growth inhibition in host cells, dose response, cell-based, plate reader, dry powder, set 2 (AID 652275); assay type: functional
[2] = T. cruzi intracellular amastigote growth inhibition, dose response, imaging, CA-I/72 strain, bovine embryo skeletal muscle, dry powder (AID 651885); assay type: functional, cell-based
[3] = Luminescence Cell-Based Dose Response HTS to Identify Inhibitors of 5'UTR Stem-Loop Driven Prion Protein mRNA Translation in H4 Neuroglioblastoma Cells. [Related pubchem assays: 1827 (Project Summary), 1813 (Primary HTS)]; assay type: functional
cells [4] = settings: A549
[5] = inhibitors of firefly luciferase expression or activity, dose response, H4 neuroglioma cells, luminescence (AID 1990); assay type: functional, cell-based
[6] = inhibitors of SNCA 5'UTR-driven reporter translation, confirmation, H4 neuroglioma cells, luminescence (AID 1988); assay type: functional, cell-based
cells [7] = settings: HEK293;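 further: cells exposed to compound for 48 hours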
[8] = target: Metabotropic glutamate receptor 7 (Homo sapiens, UniProt Q14831); experiment: mGlu7 positive allosteric modulators, dose response, cell-based, calcium mobilization, Galpha15 (AID 743384); assay type: functional
[9] = HEK293 Cytotoxicity Assay Measured in Cell-Based System Using Plate Reader - 7071-01_Inhibitor_Dose_CherryPick_Activity_Set2.; assay type: functional
HeLa = experiment: HeLa cell cytotoxicity, dose response, cytotoxicity control, ATP luminescence, cherry-pick samples (AID 687004); assay type: functional, cell-based; settings: Homo sapiens
HEK293 = experiment: HEK293T cell cytotoxicity, dose response, cytotoxicity control, ATP luminescence, cherry-pick samples (AID 687005); assay type: functional, cell-based; settings: Homo sapiens;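 further: cells exposed to compound for 48 hours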
[10] = target: T1, Oxysterols receptor LXR-beta (Homo sapiens, UniProt P55055); assay type: functional, cell-based;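 further: agonist activity at LXR measured by a cell-based luminescence readout across a dose range, run as a counterscreen for daf-12 agonists; HEK293 cells with Gal4-LXR fusion and GAL4-driven luciferase reporter; potency for activation of Gal4-LXR reporter so compounds are agonists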
T1 sequence (P55055 whole entry): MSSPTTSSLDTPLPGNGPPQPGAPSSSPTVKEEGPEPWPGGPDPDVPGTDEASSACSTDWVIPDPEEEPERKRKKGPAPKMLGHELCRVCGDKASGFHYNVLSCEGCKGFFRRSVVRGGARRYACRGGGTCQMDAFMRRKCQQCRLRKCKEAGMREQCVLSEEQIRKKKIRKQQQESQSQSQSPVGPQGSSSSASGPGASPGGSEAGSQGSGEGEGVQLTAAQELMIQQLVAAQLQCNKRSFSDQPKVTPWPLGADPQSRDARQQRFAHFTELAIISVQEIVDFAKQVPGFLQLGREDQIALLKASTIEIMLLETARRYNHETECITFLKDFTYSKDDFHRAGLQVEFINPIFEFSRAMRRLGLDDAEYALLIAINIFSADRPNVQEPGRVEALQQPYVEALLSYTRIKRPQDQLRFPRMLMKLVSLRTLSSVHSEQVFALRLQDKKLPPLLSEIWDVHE

[11] = human group III sPLA2 inhibitors, dose response, biochemical, QFRET, IC50 (AID 743457);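 further: green fluorescence rise as the enzyme cleaves BODIPY PC-A2 in liposomes; potency for inhibition of the enzyme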
[12] = target: Apoptotic protease-activating factor 1 (Homo sapiens, UniProt O14727); assay type: functional
[13] = target: Histone-lysine N-methyltransferase NSD2 (Homo sapiens, UniProt O96028); assay type: biochemical
[14] = HepG2 cell cytotoxicity, dose response, cytotoxicity control, ATP luminescence, dry powder, set 2 (AID 743129); assay type: functional, cell-based
[15] = HEK293T cell cytotoxicity, dose response, cytotoxicity control, plate reader, dry powder, set 10 (AID 743315); assay type: functional, cell-based; settings: HEK293
[16] = SK-MEL-5 parental line viability, dose response, MITF inhibitor project, cell-based, CellTiter-Glo, dry powder, set 6 (AID 624429); assay type: functional
[17] = MITF Measured in Cell-Based System Using Plate Reader - 2084-01_Inhibitor_Dose_DryPowder_Activity_Set7.; assay type: functional
[18] = MITF Orthogonal Assay: SK-MEL-5 CTG Assay Measured in Cell-Based System Using Plate Reader - 2084-02_Inhibitor_Dose_DryPowder_Activity_Set5.; assay type: functional
[19] = MITF Measured in Cell-Based System Using Plate Reader - 2084-01_Inhibitor_Dose_DryPowder_Activity_Set6.; assay type: functional
[20] = A375 melanoma cell cytotoxicity, dose response, counter-screen for MITF inhibitor project, CellTiter-Glo luminescence, dry powder, set 7 (AID 624490); assay type: functional, cell-based; settings: A-375
[21] = cytotoxicity in HeLa cells, dose response, cytotoxicity control, cell-based, plate reader, dry powder (AID 651946); assay type: functional
[22] = Dose-response inhibition of insulin secretion in a rat insulinoma line at 5 mM glucose (AID 1117331); assay type: functional, cell-based; settings: INS-1E

Histone-lysine N-methyltransferase NSD2, sequence (O96028 whole entry): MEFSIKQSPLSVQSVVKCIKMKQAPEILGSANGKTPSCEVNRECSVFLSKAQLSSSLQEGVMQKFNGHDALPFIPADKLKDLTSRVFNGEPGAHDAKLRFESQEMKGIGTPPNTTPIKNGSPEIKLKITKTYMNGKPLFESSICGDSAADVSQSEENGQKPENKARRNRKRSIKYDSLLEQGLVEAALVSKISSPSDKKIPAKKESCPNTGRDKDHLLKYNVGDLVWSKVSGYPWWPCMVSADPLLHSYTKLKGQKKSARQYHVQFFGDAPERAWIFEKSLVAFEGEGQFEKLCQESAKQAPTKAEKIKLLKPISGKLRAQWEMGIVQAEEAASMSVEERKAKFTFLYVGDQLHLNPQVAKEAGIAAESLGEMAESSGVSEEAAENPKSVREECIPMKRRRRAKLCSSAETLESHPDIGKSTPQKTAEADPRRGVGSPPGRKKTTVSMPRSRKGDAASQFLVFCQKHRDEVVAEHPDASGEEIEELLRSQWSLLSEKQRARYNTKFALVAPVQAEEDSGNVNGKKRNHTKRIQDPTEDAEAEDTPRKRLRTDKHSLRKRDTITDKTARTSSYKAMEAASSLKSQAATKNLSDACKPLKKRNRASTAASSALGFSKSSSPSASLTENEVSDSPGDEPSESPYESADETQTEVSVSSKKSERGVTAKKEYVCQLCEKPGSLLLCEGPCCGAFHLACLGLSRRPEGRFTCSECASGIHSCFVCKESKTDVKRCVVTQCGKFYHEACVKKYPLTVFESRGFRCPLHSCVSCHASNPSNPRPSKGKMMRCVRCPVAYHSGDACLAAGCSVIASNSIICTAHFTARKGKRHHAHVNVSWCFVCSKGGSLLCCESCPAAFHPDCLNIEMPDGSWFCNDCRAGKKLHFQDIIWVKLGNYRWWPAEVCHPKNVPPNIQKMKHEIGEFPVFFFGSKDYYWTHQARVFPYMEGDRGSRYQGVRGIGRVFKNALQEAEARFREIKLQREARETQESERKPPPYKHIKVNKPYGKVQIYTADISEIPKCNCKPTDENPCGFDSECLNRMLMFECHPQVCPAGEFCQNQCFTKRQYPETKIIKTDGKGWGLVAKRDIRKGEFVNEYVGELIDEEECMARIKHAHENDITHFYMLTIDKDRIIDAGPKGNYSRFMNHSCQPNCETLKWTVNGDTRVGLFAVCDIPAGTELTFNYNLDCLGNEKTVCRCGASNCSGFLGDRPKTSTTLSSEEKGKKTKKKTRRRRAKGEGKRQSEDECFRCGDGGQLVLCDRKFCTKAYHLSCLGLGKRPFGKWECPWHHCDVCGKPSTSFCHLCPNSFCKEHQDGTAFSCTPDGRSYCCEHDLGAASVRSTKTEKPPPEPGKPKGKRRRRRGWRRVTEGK
Apoptotic protease-activating factor 1, sequence (O14727 whole entry): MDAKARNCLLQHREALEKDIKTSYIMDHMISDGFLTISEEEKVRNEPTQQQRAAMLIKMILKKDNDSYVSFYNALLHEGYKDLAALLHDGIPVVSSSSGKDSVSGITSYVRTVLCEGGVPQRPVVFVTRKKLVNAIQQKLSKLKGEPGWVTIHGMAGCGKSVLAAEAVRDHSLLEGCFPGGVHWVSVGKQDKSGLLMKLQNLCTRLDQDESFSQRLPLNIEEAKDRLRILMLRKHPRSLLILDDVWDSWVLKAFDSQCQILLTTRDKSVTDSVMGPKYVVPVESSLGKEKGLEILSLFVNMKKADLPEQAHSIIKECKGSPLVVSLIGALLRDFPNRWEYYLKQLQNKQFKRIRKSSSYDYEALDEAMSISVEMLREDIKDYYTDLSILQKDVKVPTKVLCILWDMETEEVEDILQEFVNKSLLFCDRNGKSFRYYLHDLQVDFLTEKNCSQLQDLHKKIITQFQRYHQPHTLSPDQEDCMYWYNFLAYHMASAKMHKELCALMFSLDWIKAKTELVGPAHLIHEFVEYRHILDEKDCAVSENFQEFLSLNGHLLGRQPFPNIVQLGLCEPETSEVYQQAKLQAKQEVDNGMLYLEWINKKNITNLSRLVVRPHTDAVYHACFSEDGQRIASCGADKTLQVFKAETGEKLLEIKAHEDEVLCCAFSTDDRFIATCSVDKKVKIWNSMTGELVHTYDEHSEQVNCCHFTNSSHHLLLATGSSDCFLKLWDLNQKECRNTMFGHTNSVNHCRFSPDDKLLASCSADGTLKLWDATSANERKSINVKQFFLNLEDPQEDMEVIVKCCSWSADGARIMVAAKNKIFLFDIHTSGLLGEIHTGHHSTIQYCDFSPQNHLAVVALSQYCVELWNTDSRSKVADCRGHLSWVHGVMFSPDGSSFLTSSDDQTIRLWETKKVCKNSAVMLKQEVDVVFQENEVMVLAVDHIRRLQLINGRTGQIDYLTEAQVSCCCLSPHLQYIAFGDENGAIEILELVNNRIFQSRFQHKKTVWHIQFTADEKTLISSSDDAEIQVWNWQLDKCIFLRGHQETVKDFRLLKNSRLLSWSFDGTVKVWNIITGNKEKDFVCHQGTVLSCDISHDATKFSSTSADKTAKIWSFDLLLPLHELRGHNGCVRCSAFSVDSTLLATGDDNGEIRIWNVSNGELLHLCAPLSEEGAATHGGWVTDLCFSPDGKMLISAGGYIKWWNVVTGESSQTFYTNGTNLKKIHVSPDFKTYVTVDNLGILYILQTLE
Metabotropic glutamate receptor 7, sequence (Q14831 whole entry): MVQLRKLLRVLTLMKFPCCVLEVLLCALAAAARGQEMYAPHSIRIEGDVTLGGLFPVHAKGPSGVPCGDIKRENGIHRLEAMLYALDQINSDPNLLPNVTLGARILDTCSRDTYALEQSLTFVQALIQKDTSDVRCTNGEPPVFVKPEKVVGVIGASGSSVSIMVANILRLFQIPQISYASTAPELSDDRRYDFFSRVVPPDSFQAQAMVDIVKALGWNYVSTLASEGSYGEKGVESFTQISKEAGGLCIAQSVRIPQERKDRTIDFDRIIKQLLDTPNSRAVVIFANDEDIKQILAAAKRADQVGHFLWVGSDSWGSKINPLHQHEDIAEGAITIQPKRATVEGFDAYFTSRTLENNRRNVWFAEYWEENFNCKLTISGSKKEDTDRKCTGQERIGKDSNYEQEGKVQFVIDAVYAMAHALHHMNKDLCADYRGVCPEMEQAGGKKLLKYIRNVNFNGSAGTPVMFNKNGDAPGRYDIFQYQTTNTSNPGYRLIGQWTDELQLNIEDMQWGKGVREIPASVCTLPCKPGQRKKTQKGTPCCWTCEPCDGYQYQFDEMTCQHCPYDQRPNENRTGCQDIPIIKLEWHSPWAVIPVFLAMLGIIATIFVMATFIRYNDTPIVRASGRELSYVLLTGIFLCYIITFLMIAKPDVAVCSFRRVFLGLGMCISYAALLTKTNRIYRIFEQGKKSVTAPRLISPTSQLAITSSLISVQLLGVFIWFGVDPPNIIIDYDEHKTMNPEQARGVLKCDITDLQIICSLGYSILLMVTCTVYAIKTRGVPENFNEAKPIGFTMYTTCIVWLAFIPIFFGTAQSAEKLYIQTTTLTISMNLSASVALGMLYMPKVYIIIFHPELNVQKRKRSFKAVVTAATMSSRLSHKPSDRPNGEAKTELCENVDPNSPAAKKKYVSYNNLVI

## C[C@@H]1CN([C@@H](C)CO)C(=O)c2cccc(NC(=O)c3cnccn3)c2O[C@H]1CN(C)Cc1ccc(Oc2ccccc2)cc1
[1]
  AC50: 1.96 µM (active)
[2]
  IC50: > 20 µM (inactive)

## CCC(=O)NCCCNc1nc2c(C)cccc2cc1C#N
[3]
  EC50: > 120 µM (not active)
Cells [4]
  AC50: > 52 µM (inactive)
[5]
  EC50: 25.9 µM (active)
[6]
  EC50: > 120 µM (not active)

## Cc1cccn2c(=O)c3cc(C(=O)NCc4ccc(F)cc4)c(=N)n(CCCN4CCOCC4)c3nc12
Cells [7]
  AC50: > 52 µM (inactive)

## CC(=O)Nc1ccc(OCC(=O)c2cc(C)n(-c3ccc(OC(F)F)cc3)c2C)cc1
[8]
  EC50: 2.4 µM (active)

## C[C@H]1CN([C@@H](C)CO)S(=O)(=O)c2ccc(C#Cc3cccc(F)c3)cc2O[C@@H]1CN(C)C(=O)NC1CCCCC1
[9]
  AC50: 8.15 µM (active)
HeLa
  AC50: 34.4 µM (active)
HEK293
  AC50: 8.15 µM (active)

## COC1=C/C(=C/c2c(O)c(C#N)c3ccccn23)C=CC1=O
[10]
  EC50: > 67.5 µM (inactive)

## Cc1ccccc1N=C(S)c1nc2ccccc2[nH]1
[11]
  IC50: > 122 µM (inactive)

## O=C1C(Cl)=C(NCCN2CCOCC2)C(=O)c2ccccc21
[12]
  IC50: 22 µM (active)
[13]
  AC50: 10.8 µM (active)

## Cc1ccc(OCCn2c(SCCO)nc3ccccc32)c(C(C)C)c1
[14]
  AC50: 50.8 µM (active)
[15]
  AC50: 31.2 µM (active)

## O=C1C(NS(=O)(=O)c2ccccc2)=C(c2ccccc2)C(=O)c2ccccc21
[16]
  AC50: 65.6 µM (active)
[17]
  AC50: 41 µM (active)
[18]
  AC50: 56.7 µM (active)
[19]
  AC50: 61.4 µM (active)
[20]
  AC50: > 70 µM (inactive)

## c1ccc(-c2nnc(SCc3ncco3)o2)cc1
[21]
  AC50: > 52 µM (inactive)

## CNCCCCOc1ccccc1Cc1ccccc1 [BIFEMELANE]
[22]
  IC50: > 33.3 µM (inactive)
